Read-outs that look alike come from different tables or passages of the source. Starred links: 1 amine or outer side, 2 acyl side, 3 side chain; linkers in the order of their positions; H or OH if unused. Positions of bridges follow the written chain, without caps; N, C: chain ends. Non-standard residues stand in square brackets, D forms with d. Groups on a side chain read outwards from the residue. *: point of attachment. Butyryl(4-SO2NHCO(CH2)16Tz) = O=C(CCCCCCCCCCCCCCCCc1nnn[nH]1)NS(=O)(=O)CCCC(=O)*; Undecanoyl(11-OPh(4-COOH)) = O=C(O)c1ccc(OCCCCCCCCCCC(=O)*)cc1; Decanoyl(10-(4-HOOC-PhO)) = O=C(O)c1ccc(OCCCCCCCCCC(=O)*)cc1; C20 diacid = O=C(O)CCCCCCCCCCCCCCCCCCC(=O)*; C18 diacid = O=C(O)CCCCCCCCCCCCCCCCC(=O)*; C16 diacid = O=C(O)CCCCCCCCCCCCCCC(=O)*; γGlu = O=C(O)[C@H](CCC(=O)[*:2])N[*:1]; εLys = N[C@@H](CCCCN[*:1])C(=O)[*:2]; Trx = NC[C@H]1CC[C@H](C(=O)O)CC1; AEEA = NCCOCCOCC(=O)O; Aib = CC(C)(N)C(=O)O; Ahx = NCCCCCC(=O)O
Key:
[1] = molecular target: T1, human GLP-1 receptor (Homo sapiens, UniProt P43220); assay: Human GLP-1 receptor in vitro potency assay (CRE-luciferase reporter, BHK cells); format: cell-based
T1 construct: expressed in transfected cells; host or cells: BHK (Baby Hamster Kidney) cells, clone BHK 467-12A KZ-10, stably transfected, with CRE-luciferase reporter
T1 sequence (P43220 24-463): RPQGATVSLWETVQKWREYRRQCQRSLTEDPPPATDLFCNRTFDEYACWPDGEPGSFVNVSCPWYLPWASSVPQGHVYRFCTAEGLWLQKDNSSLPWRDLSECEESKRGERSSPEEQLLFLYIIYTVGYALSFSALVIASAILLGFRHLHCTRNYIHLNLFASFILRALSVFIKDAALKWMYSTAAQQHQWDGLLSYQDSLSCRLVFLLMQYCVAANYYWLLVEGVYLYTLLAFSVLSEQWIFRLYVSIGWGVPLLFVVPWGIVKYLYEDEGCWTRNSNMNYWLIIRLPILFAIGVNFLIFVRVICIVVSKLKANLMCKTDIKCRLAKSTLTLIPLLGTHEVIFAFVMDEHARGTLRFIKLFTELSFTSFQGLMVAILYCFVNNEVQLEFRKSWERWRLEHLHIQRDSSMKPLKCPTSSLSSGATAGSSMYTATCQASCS
Experimental: It is thus possible to measure GLP-1 receptor activity using a CRE-luciferase reporter gene introduced into Baby Hamster Kidney (BHK) cells co-expressing the GLP-1 receptor.
Cells were aliquoted and stored at -180° C. until use.
Plates were sealed and incubated at room temperature with gentle shaking for 30 minutes while protected from light. Luminescence was detected on a luminescence plate reader e.g. a Synergy 2 (BioTek).

[2] = molecular target: T2, human amylin receptor (hAmyR3) (Homo sapiens, UniProt O60896+P30988); assay: Human amylin receptor in vitro potency assay (CRE-luciferase reporter, BHK cells); format: cell-based; conditions: for Ability to agonise the amylin receptor, in words: Tables 4a-4c;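 on all read-outs here: BHK cells expressing human calcitonin receptor plus RAMP3 (amylin-3 receptor) with a CRE-luciferase reporter, agonist activity read as luminescence from cAMP-driven transcription, 7-point serial dilutions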
T2 construct: host or cells: BHK cells (Hollex-1 line: human calcitonin receptor (a) + CRE-Luc), further transfected with human RAMP3
T2 sequence (P30988 25-474): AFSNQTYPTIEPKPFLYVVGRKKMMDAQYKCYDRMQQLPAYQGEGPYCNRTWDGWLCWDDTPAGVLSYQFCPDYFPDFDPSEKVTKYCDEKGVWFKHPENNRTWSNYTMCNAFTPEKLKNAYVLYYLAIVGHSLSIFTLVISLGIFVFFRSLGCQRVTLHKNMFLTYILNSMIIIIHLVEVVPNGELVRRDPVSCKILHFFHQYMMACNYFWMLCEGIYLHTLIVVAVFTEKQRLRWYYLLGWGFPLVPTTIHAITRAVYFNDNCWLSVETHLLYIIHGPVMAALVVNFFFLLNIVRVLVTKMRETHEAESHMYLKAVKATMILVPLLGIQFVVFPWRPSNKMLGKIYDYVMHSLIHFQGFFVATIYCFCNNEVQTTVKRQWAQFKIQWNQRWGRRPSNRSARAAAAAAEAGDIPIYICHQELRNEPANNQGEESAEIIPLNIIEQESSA
T2 sequence (O60896 24-148): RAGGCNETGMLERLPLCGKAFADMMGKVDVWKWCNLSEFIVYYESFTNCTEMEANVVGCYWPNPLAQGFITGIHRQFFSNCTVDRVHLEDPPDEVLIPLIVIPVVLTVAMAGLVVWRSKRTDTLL

[3] = Table 4a, BHK cells expressing human GLP-1R, CRE-Luc, 3 hours, read-out: Human GLP-1R potency [EC50 (pM)]
[4] = Table 4a, BHK hAmyR3/CRE-Luc cells, 3 hours, read-out: Human AmyR3 potency [EC50 (pM)]

H-H[Aib]EGTFTSDVSSYLEEQAAREFIEWLVRGK(Butyryl(4-SO2NHCO(CH2)16Tz))GGGASELSTAALGRLSAELHELATLPRTETGSGSP-NH2 [Compound 0146]
EC50 [1, 3]: 25.7 pM
EC50 [2, 4]: 14 pM

H-HWEGTFTSDVSSYLEEQAARK([AEEA-AEEA-γGlu-Undecanoyl(11-OPh(4-COOH))])FIEWLVRGRGEGGGGGASELSTAALGRLSK([AEEA-AEEA-γGlu-Undecanoyl(11-OPh(4-COOH))])ELHELATLPRTETGSGSP-NH2 [Compound 0255]
EC50 [1]: 2.5 pM
EC50 [2]: 28.6 pM

H-H[Aib]EGTFTSDK([AEEA-AEEA-γGlu-C16 diacid])SSYLEEQAAREFIAWLVRGRGGGGGEASELSTAALGRLSAELHELATLK([AEEA-AEEA-γGlu-C16 diacid])RTETGSGSP-NH2 [Compound 0261]
EC50 [1, 3]: 17.4 pM
EC50 [2, 4]: 23.9 pM

H-HAEGTFTSDVSK([AEEA-AEEA-γGlu-C16 diacid])YLEEQAVREFIAK([AEEA-AEEA-γGlu-C16 diacid])LVRGRGGGEASELSTAALGRLSAELHELATLPRTETGSGSP-NH2 [Compound 0482]
EC50 [1, 3]: 36.5 pM
EC50 [2, 4]: 31.8 pM

HWEGTFTSDVSSYLEEK([AEEA-AEEA-γGlu-C20 diacid])AAREFIEWLVRGRGEASELSTAALGRLSAELHELATLPRTETGSGSP-NH2 [Compound 0473]
EC50 [1, 3]: 3.1 pM
EC50 [2, 4]: 16.2 pM

H-H[Aib]EGTFTSDVSSYLEGQAAKEFIAWLVRGRK([εLys-AEEA-AEEA-γGlu-C18 diacid])GGEASELSTAALGRPSAELHELATLPRTETGSGSP-NH2 [Comparator compound 0185, reference compound]
EC50 ([1]; Table 4c, further comparator compounds): 13.1 pM
EC50 ([2]; Table 4c, further comparator compounds, read-out: Human AmyR3 potency [EC50 (pM)]): 5660 pM
Ability to agonise the amylin receptor, in words [2]: impaired their ability to agonise (activate) the amylin receptor

H-H[Aib]EGTFTSDVSSYLEEQAAREFIAWLVRGRK([Ahx-Ahx-γGlu-C18 diacid])GGGGEASELSTAALGRLSAELHELATLPRTETGSGSP-NH2 [Compound 0658]
EC50 [1, 3]: 3.1 pM
EC50 [2, 4]: 11 pM

H-H[Aib]EGTFTSDVSSYLEEQAAREFIAWLVRGRK([AEEA-AEEA-γGlu-C18 diacid])GGEASELSTAALGRLSAELHELATLPRTETGSGSP-NH2 [Compound 0114]
EC50 [1, 3]: 1 pM
EC50 [2, 4]: 17.5 pM

HAEGTFTSDVSSYLEEK([AEEA-AEEA-γGlu-C18 diacid])AAREFIEWLVRGRGEASELSTAALGRLSAELHELATLPRTETGSGSP-NH2 [Compound 0472]
EC50 [1, 3]: 2.8 pM
EC50 [2, 4]: 24 pM

HWEGTFTSD-K([(2S)-2-Amino-6-[[2-[2-[2-[[2-[2-[2-[[(4S)-4-Carboxy-4-[[4-[(19-Carboxynonadecanoylamino)Methyl]Cyclohexanecarbonyl]Amino]Butanoyl]Amino]Ethoxy]Ethoxy]Acetyl]Amino]Ethoxy]Ethoxy]Acetyl]Amino]Hex Anoyl])-SSYLEEQAAREFIEWLVRGRGEASELSTAALGRLSAELHELATLPRTETGSGSP-amide [Compound 0433]
EC50 [1, 3]: 30.7 pM
EC50 [2, 4]: 12.9 pM

H-H[Aib]EGTFTSDVSSYLEEQAAREFIEWLVRGRK([AEEA-AEEA-γGlu-Trx-C20 diacid])EAEAEASELSTAALGRLSAELHELATLPRTETGSGSP-NH2 [Compound 0179]
EC50 [1, 3]: 8.8 pM
EC50 [2, 4]: 35.9 pM

H-H[Aib]EGTFTSDVSSYLEGQAAREFIAWLVRGRGQEPGQAPK([AEEA-AEEA-γGlu-C18 diacid])EASELSTAALGRLSAELHELATLPRTETGSGSP-NH2 [Compound 0085]
EC50 [1, 3]: 2.2 pM
EC50 [2, 4]: 55.8 pM

HWEGTFTSDVSSYLEEQAARK([AEEA-AEEA-γGlu-Decanoyl(10-(4-HOOC-PhO))])FIEWLVRGK([AEEA-AEEA-γGlu-Decanoyl(10-(4-HOOC-PhO))])GEGGGGGGGGGEASELSTAALGRLSAELHELATLPRTETGSGSP-NH2 [Compound 0101]
EC50 [1]: 7.1 pM
EC50 [2]: 10.2 pM

H-H[Aib]EGTFTSDVSSYLEEQAARK([γGlu-γGlu-γGlu-γGlu-C20 diacid])FIAWLVRGRGGGGGEASELSTAALGRLSAELHELATLPRTETGSGSP-NH2 [Compound 0633]
EC50 [1, 3]: 28.2 pM
EC50 [2, 4]: 5.3 pM

H-H[Aib]EGTFTSDVSSYLEEQAARK([AEEA-AEEA-γGlu-C16 diacid])FIAWLVRGRGGGGGASELSTAALGRLSK([AEEA-AEEA-γGlu-C16 diacid])ELHELATLPRTETGSGSP-NH2 [Compound 0296]
EC50 [1, 3]: 4 pM
EC50 [2, 4]: 29.9 pM

H[Aib]EGTFTSDVSSYLEEQAARK([εLys-AEEA-AEEA-γGlu-C18 diacid])FIAWLVRGK([εLys-AEEA-AEEA-γGlu-C18 diacid])GGGGGGGGGEASELSTAALGRLSAELHELATLPRTETGSGSP-NH2 [Compound 0110]
EC50 [1]: 2.7 pM
EC50 [2]: 40.7 pM

H-H[Aib]EGTFTSDVSSYLEGQAAK([εLys-AEEA-AEEA-γGlu-C18 diacid])EFIAWLVRGRGGGGGGGGGEASELSTAALGRLSAELHELATLPRTETGSGSP-NH2 [Compound 0159]
EC50 [1, 3]: 30.3 pM
EC50 [2, 4]: 19.3 pM

H-H[Aib]EGTFTSDVSSYLEEQAARK([AEEA-AEEA-γGlu-C18 diacid])FIEWLVRGK([AEEA-AEEA-γGlu-C18 diacid])GGEASELSTAALGRLSAELHELATLPRTETGSGSP-NH2 [Compound 0128]
EC50 [1, 3]: 9.7 pM
EC50 [2, 4]: 110 pM

H-H[Aib]EGTFTSDVSSYLEEQAAREFIAWLVRGRK([AEEA-AEEA-AEEA-AEEA-γGlu-C18 diacid])GGGGEASELSTAALGRLSAELHELATLPRTETGSGSP-NH2 [Compound 0662]
EC50 [1, 3]: 3 pM
EC50 [2, 4]: 14.6 pM

H-H[Aib]EGTFTSDVSK([AEEA-AEEA-γGlu-C16 diacid])YLEEQAARK([AEEA-AEEA-γGlu-C16 diacid])FIEWLVRGAAEASELSTAALGRLSAELHELATLPRTETGSGSP-NH2 [Compound 0629]
EC50 [1, 3]: 7.9 pM
EC50 [2, 4]: 97.5 pM

H-H[Aib]EGTFTSDK([AEEA-AEEA-γGlu-C16 diacid])SSYLEEQAAREFIAWLVRGRGGGGGEASELSTAALGRLSAELHELK([AEEA-AEEA-γGlu-C16 diacid])TLPRTETGSGSP-NH2 [Compound 0260]
EC50 [1, 3]: 11.9 pM
EC50 [2, 4]: 41.8 pM

H-H[Aib]EGTFTSDVSSYLEGQAAK([AEEA-AEEA-γGlu-C18 diacid])EFIAWLVRGRGQAPGQEPEASELSTAALGRLSAELHELATLPRTETGSGSP-NH2 [Compound 0156]
EC50 [1, 3]: 22.6 pM
EC50 [2, 4]: 22.6 pM

H-HGEGTFTSDVSSYLEEQAARK([AEEA-AEEA-γGlu-C18 diacid])FIEWLVRGK([AEEA-AEEA-γGlu-C18 diacid])GEGGEASELSTAALGRLSAELHELATLPRTETGSGSP-NH2 [Compound 0090]
EC50 [1, 3]: 32.6 pM
EC50 [2, 4]: 70.9 pM

H[Aib]EGTFTSDVSSYLEEQAARK([AEEA-AEEA-γGlu-C16 diacid])FIAWLVRGRGGK([AEEA-AEEA-γGlu-C16 diacid])EASELSTAALGRLSAELHELATLPRTETGSGSP-NH2 [Compound 0074]
EC50 [2, 4]: 60.9 pM

CC[C@H](C)[C@H](NC(=O)[C@H](Cc1ccccc1)NC(=O)[C@H](CCCCNC(=O)COCCOCCNC(=O)COCCOCCNC(=O)CC[C@H](NC(=O)CCCCCCCCCCCCCCCCC(=O)O)C(=O)O)NC(=O)[C@H](CCCNC(=N)N)NC(=O)[C@H](C)NC(=O)[C@H](C)NC(=O)[C@H](CCC(N)=O)NC(=O)[C@H](CCC(=O)O)NC(=O)[C@H](CCC(=O)O)NC(=O)[C@H](CC(C)C)NC(=O)[C@H](Cc1ccc(O)cc1)NC(=O)[C@H](CO)NC(=O)[C@H](CO)NC(=O)[C@@H](NC(=O)[C@H](CC(=O)O)NC(=O)[C@H](CO)NC(=O)[C@@H](NC(=O)[C@H](Cc1ccccc1)NC(=O)[C@@H](NC(=O)CNC(=O)[C@H](CCC(=O)O)NC(=O)C(C)(C)NC(=O)[C@@H](N)Cc1c[nH]cn1)[C@@H](C)O)[C@@H](C)O)C(C)C)C(=O)N[C@@H](CCC(=O)O)C(=O)N[C@@H](Cc1c[nH]c2ccccc12)C(=O)N[C@@H](CC(C)C)C(=O)N[C@H](C(=O)N[C@@H](CCCNC(=N)N)C(=O)NCC(=O)N[C@@H](CCCCNC(=O)COCCOCCNC(=O)COCCOCCNC(=O)CC[C@H](NC(=O)CCCCCCCCCCCCCCCCC(=O)O)C(=O)O)C(=O)NCC(=O)N[C@@H](CCC(=O)O)C(=O)NCC(=O)N[C@@H](CCC(N)=O)C(=O)N[C@@H](CCC(=O)O)C(=O)N1CCC[C@H]1C(=O)NCC(=O)NCC(=O)N[C@@H](C)C(=O)N[C@@H](CO)C(=O)N[C@@H](CCC(=O)O)C(=O)N[C@@H](CC(C)C)C(=O)N[C@@H](CO)C(=O)N[C@H](C(=O)N[C@@H](C)C(=O)N[C@@H](C)C(=O)N[C@@H](CC(C)C)C(=O)NCC(=O)N[C@@H](CCCNC(=N)N)C(=O)N[C@@H](CC(C)C)C(=O)N[C@@H](CO)C(=O)N[C@@H](C)C(=O)N[C@@H](CCC(=O)O)C(=O)N[C@@H](CC(C)C)C(=O)N[C@@H](Cc1c[nH]cn1)C(=O)N[C@@H](CCC(=O)O)C(=O)N[C@@H](CC(C)C)C(=O)N[C@@H](C)C(=O)N[C@H](C(=O)N[C@@H](CC(C)C)C(=O)N1CCC[C@H]1C(=O)N[C@@H](CCCNC(=N)N)C(=O)N[C@H](C(=O)N[C@@H](CCC(=O)O)C(=O)N[C@H](C(=O)NCC(=O)N[C@@H](CO)C(=O)NCC(=O)N[C@@H](CO)C(=O)N1CCC[C@H]1C(N)=O)[C@@H](C)O)[C@@H](C)O)[C@@H](C)O)[C@@H](C)O)C(C)C [Compound 0106]
EC50 [2, 4]: 28.4 pM

H-H[Aib]EGTFTSDVSSYLEGQAAK([AEEA-AEEA-γGlu-C18 diacid])EFIAWLVRGRGGQEPGQEPK([γGlu-γGlu-C20 diacid])CNTATCATQRLADFLRHSSPNFGAIPSSTNVGSRTY-NH2 (disulfide 41-46) [Comparator compound 0668, reference compound]
Ability to agonise the amylin receptor, in words [2]: do not activate the amylin receptor

H-H[Aib]EGTFTSDVSSYLEEQAARK([AEEA-AEEA-γGlu-γGlu-γGlu-C20 diacid])FIEWLVRGRQEAASELSTAALGRLSAELHQLATLPRTETGSGSP-NH2 [Compound 0636]
EC50 [2, 4]: 8.5 pM

Source: patent US20230331803A1, “CO-AGONISTS OF THE GLP-1 AND AMYLIN RECEPTORS” (priority 2020, published 2023)
